Data as given in US9771353B2, “Kinase inhibitors based upon N-alkyl pyrazoles” (RESPIVERT LIMITED, priority 2013, dated 2017).
Where two headings read alike, the source gives them in different places.

Experiments:
[1] = biological target: GSK3α (Homo sapiens (Human), UniProt P49840); assay: GSK 3α enzyme inhibition (FRET, Z-LYTE), Method 2; type: biochemical
Protocol: (§1) The enzyme inhibitory activities of compounds disclosed herein are determined by FRET using synthetic peptides labelled with both donor and acceptor fluorophores (Z-LYTE, Invitrogen Ltd., Paisley, UK).
The inhibitory activities of compounds of the invention against the GSK 3α enzyme isoform (Invitrogen), are evaluated by determining the level of activation/phosphorylation of the target peptide. The GSK3-α protein (500 ng/mL, 2.5 μL) is mixed with the test compound (2.5 μL at either 4 μg/mL, 0.4 μg/mL, 0.04 μg/mL, or 0.004 μg/mL) for 2 hr at RT. The FRET peptide (8 μM, 2.5 μL), which is a phosphorylation target for GSK3α, and ATP (40 μM, 2.5 μL) are then added to the enzyme/compound mixture and the resulting mixture incubated for 1 hr. Development reagent (protease, 5 μL) is added for 1 hr prior to detection in a fluorescence microplate reader (Varioskan® Flash, ThermoFisher Scientific).
(§2) In all cases, the site-specific protease cleaves non-phosphorylated peptide only and eliminates the FRET signal. Phosphorylation levels of each reaction are calculated using the ratio of coumarin emission (donor) over fluorescein emission (acceptor), for which high ratios indicate high phosphorylation and low ratios indicate low phosphorylation levels.
This method follows the same steps as Method 1 above, but utilises a shorter period of mixing of the test compound (105 minutes instead of 2 hours) with the GSK3-α protein.

[2] = biological target: Syk (Homo sapiens (Human), UniProt P43405); assay: Syk enzyme inhibition (FRET, Z-LYTE); type: biochemical
Protocol: as §1
The inhibitory activities of compounds of the invention against c-Src and Syk enzymes (Invitrogen), are evaluated in a similar fashion to that described hereinabove. The relevant enzyme (3000 ng/mL or 2000 ng/mL respectively, 2.5 μL) is incubated with the test compound (either 4 μg/mL, 0.4 μg/mL, 0.04 μg/mL, or 0.004 μg/mL, 2.5 μL each) for 2 hr at RT. The FRET peptides (8 μM, 2.5 μL), and appropriate ATP solutions (2.5 μL, 800 μM for c-Src, and 60 μM ATP for Syk) are then added to the enzymes/compound mixtures and incubated for 1 hr. Development reagent (protease, 5 μL) is added for 1 hr prior to detection in a fluorescence microplate reader (Varioskan® Flash, ThermoFisher Scientific).
as §2

[3] = system: HT29 cells; assay: IL-1β-induced IL-8 release in HT29 cells, assay (d); type: cell-based; conditions: Homo sapiens, HT-29, IL-1β-stimulated HT29 cells, read-out: IC50 Values for Inhibition of Cytokine Release, HT29 cells IL-8
Protocol: HT29 cells, a human colon adenocarcinoma cell line, are plated in a 96 well plate (24 hrs) and pre-treated with compounds at the desired concentration for 2 hours before addition of 5 ng/mL of IL-1β (Abcam) for 24 hours. Supernatants are harvested for IL-8 quantification by Sandwich ELISA (Duo-set, R&D System). The IC50 is determined from the dose response curve.

[4] = system: PBMCs; assay: IL-2 and IFN gamma release in CD3/CD28 stimulated PBMC cells, assay (c); type: cell-based; conditions: Homo sapiens
Protocol: PBMCs from healthy subjects are separated from whole blood using a density gradient (Lymphoprep, Axis-Shield Healthcare). Cells are added to a 96 well plate pre-coated with a mixture of CD3/CD28 monoclonal antibodies (0.3 μg/mL eBioscience and 3 μg/mL BD Pharmingen respectively). Compound at the desired concentration is then added to the wells and the plate left for 3 days under normal tissue culture conditions. Supernatants are harvested and IL-2 and IFN gamma release determined by Sandwich ELISA (Duo-set, R&D System). The IC50 is determined from the dose response curve.

[5] = system: d-U937 cells; assay: LPS-induced TNFα/IL-8 release in d-U937 cells, assay (a); type: cell-based; conditions: Homo sapiens, LPS-stimulated dU937 cells
Protocol: U937 cells, a human monocytic cell line, are differentiated to macrophage-type cells by incubation with phorbol myristate acetate (PMA; 100 ng/mL) for 48 to 72 hr. Cells are pre-incubated with final concentrations of test compound for 2 hr and are then stimulated with 0.1 μg/mL of LPS (from E. Coli: O111:B4, Sigma) for 4 hr. The supernatant is collected for determination of TNFα and IL-8 concentrations by sandwich ELISA (Duo-set, R&D systems). The inhibition of TNFα production is calculated as a percentage of that achieved by 10 μg/mL of BIRB796 at each concentration of test compound by comparison against vehicle control. The relative 50% effective concentration (REC50) is determined from the resultant concentration-response curve. The inhibition of IL-8 production is calculated at each concentration of test compound by comparison with vehicle control.

[6] = IL-2, read-out: IC50 Values for Inhibition of Cytokine Release, PBMCs IL-2
[7] = IL-8, read-out: IC50 Values for Inhibition of Cytokine Release, dU937 cells IL-8
[8] = TNFα (method describes REC50 relative to BIRB796), read-out: IC50 Values for Inhibition of Cytokine Release, dU937 cells TNFα

Sequence of GSK3α (P49840 whole entry): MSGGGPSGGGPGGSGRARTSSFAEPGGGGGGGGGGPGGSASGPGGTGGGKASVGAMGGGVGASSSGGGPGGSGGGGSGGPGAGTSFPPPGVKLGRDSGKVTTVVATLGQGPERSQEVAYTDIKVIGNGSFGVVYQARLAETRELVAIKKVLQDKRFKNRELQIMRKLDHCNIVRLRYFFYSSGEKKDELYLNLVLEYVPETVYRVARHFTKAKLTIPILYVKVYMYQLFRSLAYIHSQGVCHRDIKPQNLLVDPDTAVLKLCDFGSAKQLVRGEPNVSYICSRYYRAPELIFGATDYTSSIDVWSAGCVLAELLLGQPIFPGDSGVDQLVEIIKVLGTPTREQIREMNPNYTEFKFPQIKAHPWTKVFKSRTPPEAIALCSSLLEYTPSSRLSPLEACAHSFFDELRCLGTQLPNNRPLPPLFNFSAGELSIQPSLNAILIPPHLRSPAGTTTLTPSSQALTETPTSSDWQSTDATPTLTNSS

SMILES: C#Cc1cc(Nc2nccc(Oc3ccc(NC(=O)Nc4cc(C(C)(C)C)nn4C)c4ccccc34)n2)cc(C(=O)NCCN2CCOCC2)c1 [Example 1, 3-((4-((4-(3-(3-(tert-Butyl)-1-methyl-1H-pyrazol-5-yl)ureido)naphthalen-1-yl)oxy)pyrimidin-2-yl)amino)-5-ethynyl-N-(2-morpholinoethyl)benzamide]
- IC50 [1]: 499 nM
- IC50 [2]: 149 nM
- IC50 [3]: 33.4 nM
- IC50 [4, 6]: 17.5 nM
- IC50 [5, 7]: 6.7 nM
- IC50 [5, 8]: 2.4 nM

SMILES: COCCOCCOCCOc1cc(Nc2nccc(Oc3ccc(NC(=O)Nc4cc(C(C)(C)C)nn4C)c4ccccc34)n2)cc(OC)c1 [Example 2, 1-(3-(tert-Butyl)-1-methyl-1H-pyrazol-5-yl)-3-(4-((2-((3-methoxy-5-(2-(2-(2-methoxy-ethoxy)ethoxy)ethoxy)phenyl)amino)pyrimidin-4-yl)oxy)naphthalen-1-yl)urea]
- IC50 [1]: 5230 nM
- IC50 [2]: 543 nM
- IC50 [3]: 16.6 nM
- IC50 ([4]; IFNγ, read-out: IC50 Values for Inhibition of Cytokine Release, PBMCs IFNγ): 6.2 nM
- IC50 [4, 6]: 11.3 nM
- IC50 [5, 7]: 1 nM
- IC50 [5, 8]: 2 nM
